Read-outs that look alike come from different tables or passages of the source.
What was measured:
Type in all cases: in vivo, Drosophila melanogaster
[1] = tested on: Dα1EMS1 Drosophila strain (lesion in the Dα1 nAChR subunit); assay: Dosage mortality testing, first instar larvae, Dα1EMS1 strain; details: for Fold resistance: Dα1EMS1 strain relative to Line 14
Procedure: (§1) Dosage mortality testing was conducted on four strains of Drosophila melanogaster. Each of the Drosophila strains tested had at least one lesion in one of the nAChR subunits or was a control strain lacking a lesion. […] The 4A4D Drosophila strain was a double mutant having lesions in both the Dα1 subunit and the Dβ2 subunit. The susceptible Drosophila strain or control Drosophila strain was the wildtype Drosophila strain in which the EMS lesions were generated, and is referred to in Tables 1-4 as the “Line 14” strain.
(§2) Screening was performed on first instar larvae with five replicates of fifty larvae per vial at each concentration to determine the susceptibility of each Drosophila strain to the spinosyn composition and to an imidacloprid composition. The spinosyn composition (spinosad) included 85% spinosyn A and 15% spinosyn D in a sugar solution. Stock solutions were typically made 0.1% w/v in acetone and then diluted to lower concentrations. The spinosyn or imidacloprid compositions were then applied to the insect diet, allowed to dry and then infested with the insect larvae.
(§3) The concentrations of the spinosyn composition and the imidacloprid composition were selected across a range to provide data enabling the effective dose (ED) that produces a response in 50% of the first instar larvae (ED50) and the effective dose that produces a response in 90% of the first instar larvae (ED90) to be calculated. After administering the spinosyn composition or the imidacloprid composition, the first instar larvae were visually monitored for mortality. Data were analyzed using Probit analysis to determine the ED50 and the ED90, along with upper and lower 95% limits.

[2] = tested on: Dβ2EMS2 Drosophila strain (lesion in the Dβ2 subunit); assay: Dosage mortality testing, first instar larvae, Dβ2EMS2 strain; details: for Fold resistance: Dβ2EMS2 strain relative to Line 14
Procedure: as §1, §2, §3

[3] = tested on: Line 14 (susceptible wildtype control) Drosophila strain; assay: Dosage mortality testing, first instar larvae, Line 14 strain; details: applied to insect diet, Probit analysis
Procedure: as §1
as §2, with “larvae. […]” for “larvae.”

[4] = tested on: 4A4D Drosophila strain (double mutant, lesions in both the Dα1 subunit and the Dβ2 subunit); details: for Fold resistance: 4A4D strain relative to Line 14
Procedure: as §1, §2, §3

[5] = Dα1EMS1 strain, first instar larvae, mortality, applied to insect diet, Probit analysis
[6] = Dβ2EMS2 strain, first instar larvae, mortality, applied to insect diet, Probit analysis
[7] = 4A4D strain, first instar larvae, mortality, applied to insect diet, Probit analysis

O=[N+]([O-])NC1=NCCN1Cc1ccc(Cl)nc1 [imidacloprid composition, imidacloprid]
ED50 [1, 5]: 2.91 ppm | ED90 [1, 5]: 5.77 ppm | Fold resistance ([1]; ED50 table): 20.63 | Fold resistance ([1]; ED90 table): 20.63 | ED50 [2, 6]: 4.04 ppm | ED90 [2, 6]: 8.02 ppm | Fold resistance ([2]; ED50 table): 28.69 | Fold resistance ([2]; ED90 table): 28.70 | ED50 [3]: 0.14 ppm | ED90 [3]: 0.28 ppm | ED50 [4, 7]: 3.78 ppm | ED90 [4, 7]: 7.49 ppm | Fold resistance ([4]; ED50 table): 26.81 | Fold resistance ([4]; ED90 table): 26.81
